# Experimental data: patent US12409139B2, “Stable parenteral formulations of duloxetine” (LEIUTIS PHARMACEUTICALS LLP, priority 2020, dated 2025)
# Read-outs that look alike come from different tables or passages of the source.
# Legend:
# [1] = for Assay (%) / Total Impurities / pH: RT-25° C.
# Description: The solution state stability of duloxetine was studied in various buffers for 24 hours.
# The samples were stored for 24 hours and analyzed for pH, assay and total impurities by standard analytical procedures.
# [2] = commercial delayed release (enteric coated) capsules, oral; cited from earlier work
# [3] = Acetate Buffer (pH-5.5), Initial
# [4] = Acetate Buffer (pH-6.4), Initial
# [5] = Aspartic acid + Boric Acid Buffer (pH-5.5), 24 h
# [6] = Aspartic acid + Boric Acid Buffer (pH-5.5), Initial
# [7] = Aspartic acid + Boric Acid Buffer (pH-6.4), 24 h
# [8] = Aspartic acid + Boric Acid Buffer (pH-6.4), Initial
# [9] = Glycine Buffer (pH-5.5), Initial
# [10] = Glycine Buffer (pH-6.4), Initial
# 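Throughout, for Solubility observation: solubility and solution-stability study of the drug dissolved in assorted buffers across a range of pH values.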
smiles,measurement,setting,value
"CNCCC(Oc1cccc2ccccc12)c1cccs1 (single isomer, unassigned; (+)) [duloxetine, (+)-N-methyl-3-(1-naphthalenyloxy)-3-(2-thienyl) propan-1-amine]",Assay (%),"[1]; Acetate Buffer (pH-5.5), 24 h",92.4%
same,Total Impurities,"[1]; Acetate Buffer (pH-5.5), 24 h",0.2
same,pH,"[1]; Acetate Buffer (pH-5.5), 24 h",5.4
same,Assay (%),[1]; [3],93.9%
same,Total Impurities,[1]; [3],0.14
same,pH,[1]; [3],5.32
same,Assay (%),"[1]; Acetate Buffer (pH-6.4), 24 h",90.3%
same,Total Impurities,"[1]; Acetate Buffer (pH-6.4), 24 h",0.1
same,pH,"[1]; Acetate Buffer (pH-6.4), 24 h",6.1
same,Assay (%),[1]; [4],94.3%
same,Total Impurities,[1]; [4],0.1
same,pH,[1]; [4],6.38
same,Assay (%),[1]; [5],93.3%
same,Total Impurities,[1]; [5],0.5
same,pH,[1]; [5],5.7
same,Assay (%),[1]; [6],93.0%
same,Total Impurities,[1]; [6],0.3
same,pH,[1]; [6],5.8
same,Assay (%),[1]; [7],97.8%
same,Total Impurities,[1]; [7],0.5
same,pH,[1]; [7],6.5
same,Assay (%),[1]; [8],97.9%
same,Total Impurities,[1]; [8],0.3
same,pH,[1]; [8],6.6
same,Assay (%),"[1]; Glycine Buffer (pH-5.5), 24 h",104.8%
same,Total Impurities,"[1]; Glycine Buffer (pH-5.5), 24 h",0.2
same,pH,"[1]; Glycine Buffer (pH-5.5), 24 h",5.5
same,Assay (%),[1]; [9],105%
same,Total Impurities,[1]; [9],0.12
same,pH,[1]; [9],5.59
same,Assay (%),"[1]; Glycine Buffer (pH-6.4), 24 h",96.6%
same,Total Impurities,"[1]; Glycine Buffer (pH-6.4), 24 h",0.18
same,pH,"[1]; Glycine Buffer (pH-6.4), 24 h",6.35
same,Assay (%),[1]; [10],97.7%
same,Total Impurities,[1]; [10],0.10
same,pH,[1]; [10],6.23
same,Solution state stability in terms of assay and total impurities (in words),"[1]; acetate buffer at pH-5.5 and pH-6.4 and glycine buffer at pH-5.5 and pH-6.4, 24 hours",best results
same,Solution state stability (in words),"[1]; all the buffers tested, stored for 24 hours",satisfactory stability
same,Solubility observation,"0.1N Sodium hydroxide buffer, pH 4.5, 10 mg/ml",Insoluble
same,Solubility observation,"0.1N Sodium hydroxide buffer, pH 5.5, 10 mg/ml",Insoluble
same,Solubility observation,"0.1N Sodium hydroxide buffer, pH 6.4, 10 mg/ml",Insoluble
same,Solubility observation,"Acetate buffer, pH 4.5, 10 mg/ml",Clear solution
same,Solubility observation,"Acetate buffer, pH 5.5, 10 mg/ml",Clear solution
same,Solubility observation,"Acetate buffer, pH 6.4, 10 mg/ml",Clear solution
same,Solubility observation,"Acetate buffer, pH 7.5, 10 mg/ml",Clear solution
same,Solubility observation,"Alanine buffer, pH 4.5, 10 mg/ml",Clear solution
same,Solubility observation,"Alanine buffer, pH 5.5, 10 mg/ml",Clear solution
same,Solubility observation,"Alanine buffer, pH 6.4, 10 mg/ml",Insoluble
same,Solubility observation,"Aspartic acid and Boric acid buffer, pH 4.5, 10 mg/ml",Clear solution
same,Solubility observation,"Aspartic acid and Boric acid buffer, pH 5.5, 10 mg/ml",Clear solution
same,Solubility observation,"Aspartic acid and Boric acid buffer, pH 6.4, 10 mg/ml",Insoluble
same,Solubility observation,"Citrate buffer, pH 4.5, 10 mg/ml",Insoluble
same,Solubility observation,"Citrate buffer, pH 5.5, 10 mg/ml",Insoluble
same,Solubility observation,"Citrate buffer, pH 6.4, 10 mg/ml",Insoluble
same,Solubility observation,"Glycine buffer, pH 4.5, 10 mg/ml",Clear solution
same,Solubility observation,"Glycine buffer, pH 5.5, 10 mg/ml",Clear solution
same,Solubility observation,"Glycine buffer, pH 6.4, 10 mg/ml",Clear solution
same,Solubility observation,"Glycine buffer, pH 7.5, 10 mg/ml",Clear solution
same,Solubility observation,"Histidine buffer, pH 4.5, 10 mg/ml",Insoluble
same,Solubility observation,"Histidine buffer, pH 5.5, 10 mg/ml",Insoluble
same,Solubility observation,"Histidine buffer, pH 6.4, 10 mg/ml",Insoluble
same,Solubility observation,"Isoleucine buffer, pH 4.5, 10 mg/ml",Clear solution
same,Solubility observation,"Isoleucine buffer, pH 5.5, 10 mg/ml",Clear solution
same,Solubility observation,"Isoleucine buffer, pH 6.4, 10 mg/ml",Clear solution
same,Solubility observation,"Isoleucine buffer, pH 7.5, 10 mg/ml",Clear solution
same,Solubility observation,"Lactic acid buffer, pH 4.5, 10 mg/ml",Clear solution
same,Solubility observation,"Lactic acid buffer, pH 5.5, 10 mg/ml",Clear solution
same,Solubility observation,"Lactic acid buffer, pH 6.4, 10 mg/ml",Clear solution
same,Solubility observation,"Lactic acid buffer, pH 7.5, 10 mg/ml",Clear solution
same,Solubility observation,"Leucine buffer, pH 4.5, 10 mg/ml",Clear solution
same,Solubility observation,"Leucine buffer, pH 5.5, 10 mg/ml",Clear solution
same,Solubility observation,"Leucine buffer, pH 6.4, 10 mg/ml",Clear solution
same,Solubility observation,"Leucine buffer, pH 7.5, 10 mg/ml",Clear solution
same,Solubility observation,"Lysine buffer, pH 4.5, 10 mg/ml",Insoluble
same,Solubility observation,"Lysine buffer, pH 5.5, 10 mg/ml",Insoluble
same,Solubility observation,"Lysine buffer, pH 6.4, 10 mg/ml",Insoluble
same,Solubility observation,"Meglumine buffer, pH 4.5, 10 mg/ml",Insoluble
same,Solubility observation,"Meglumine buffer, pH 5.5, 10 mg/ml",Insoluble
same,Solubility observation,"Meglumine buffer, pH 6.4, 10 mg/ml",Insoluble
same,Solubility observation,"Methionine buffer, pH 4.5, 10 mg/ml",Clear solution
same,Solubility observation,"Methionine buffer, pH 5.5, 10 mg/ml",Clear solution
same,Solubility observation,"Methionine buffer, pH 6.4, 10 mg/ml",Clear solution
same,Solubility observation,"Methionine buffer, pH 7.5, 10 mg/ml",Clear solution
same,Solubility observation,"Phenyl alanine buffer, pH 4.5, 10 mg/ml",Clear solution
same,Solubility observation,"Phenyl alanine buffer, pH 5.5, 10 mg/ml",Clear solution
same,Solubility observation,"Phenyl alanine buffer, pH 6.4, 10 mg/ml",Insoluble
same,Solubility observation,"Phosphate buffer, pH 4.5, 10 mg/ml",Clear solution
same,Solubility observation,"Phosphate buffer, pH 5.5, 10 mg/ml",Insoluble
same,Solubility observation,"Phosphate buffer, pH 6.4, 10 mg/ml",Insoluble
same,Solubility observation,"Proline buffer, pH 4.5, 10 mg/ml",Clear solution
same,Solubility observation,"Proline buffer, pH 5.5, 10 mg/ml",Clear solution
same,Solubility observation,"Proline buffer, pH 6.4, 10 mg/ml",Clear solution
same,Solubility observation,"Proline buffer, pH 7.5, 10 mg/ml",Clear solution
same,Solubility observation,"Serine buffer, pH 4.5, 10 mg/ml",Clear solution
same,Solubility observation,"Serine buffer, pH 5.5, 10 mg/ml",Clear solution
same,Solubility observation,"Serine buffer, pH 6.4, 10 mg/ml",Clear solution
same,Solubility observation,"Serine buffer, pH 7.5, 10 mg/ml",Insoluble
same,Solubility observation,"Sodium phosphate buffer, pH 4.5, 10 mg/ml",Clear solution
same,Solubility observation,"Sodium phosphate buffer, pH 5.5, 10 mg/ml",Insoluble
same,Solubility observation,"Sodium phosphate buffer, pH 6.4, 10 mg/ml",Insoluble
same,Solubility observation,"Succinate buffer, pH 4.5, 10 mg/ml",Clear solution
same,Solubility observation,"Succinate buffer, pH 5.5, 10 mg/ml",Insoluble
same,Solubility observation,"Succinate buffer, pH 6.4, 10 mg/ml",Insoluble
same,Solubility observation,"Tartaric acid buffer, pH 4.5, 10 mg/ml",Insoluble
same,Solubility observation,"Tartaric acid buffer, pH 5.5, 10 mg/ml",Insoluble
same,Solubility observation,"Tartaric acid buffer, pH 6.4, 10 mg/ml",Insoluble
same,Solubility observation,"Tris buffer, pH 4.5, 10 mg/ml",Insoluble
same,Solubility observation,"Tris buffer, pH 5.5, 10 mg/ml",Insoluble
same,Solubility observation,"Tris buffer, pH 6.4, 10 mg/ml",Insoluble
same,Solubility observation,"Tryptophan buffer, pH 4.5, 10 mg/ml",Clear solution
same,Solubility observation,"Tryptophan buffer, pH 5.5, 10 mg/ml",Clear solution
same,Solubility observation,"Tryptophan buffer, pH 6.4, 10 mg/ml",Clear solution
same,Solubility observation,"Tryptophan buffer, pH 7.5, 10 mg/ml",Clear solution
same,Solubility observation,"Valine buffer, pH 4.5, 10 mg/ml",Clear solution
same,Solubility observation,"Valine buffer, pH 5.5, 10 mg/ml",Clear solution
same,Solubility observation,"Valine buffer, pH 6.4, 10 mg/ml",Clear solution
same,Solubility observation,"Valine buffer, pH 7.5, 10 mg/ml",Clear solution
same,time for the absorption to begin,[2],2 h
